{"source": "paper PMC7377239", "about": "“Cardiovascular Effects of Polychlorinated Biphenyls and Their Major Metabolites” (Environmental Health Perspectives, 2020)", "key": {"[1]": {"tested_on": "iCell endothelial cells (human iPSC-derived ECs)", "assay": "High-content imaging cytotoxicity in iCell endothelial cells, 24 h", "type": "cell-based", "conditions": "Homo sapiens, Endothelial cell, 24 hr; for viability at 0.1 µM / activity at 0.1 µM: 0.10 µM", "summary_of_the_method": "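Readouts were vehicle-normalised and fitted to a four-parameter logistic model. POD was set at one SD beyond 0.5% DMSO control means, and 100 µM was assigned when no response was seen. Cells were monolayers of iCell endothelial cells imaged after 24 h compound exposure using nuclear, mitochondrial and calcein dyes.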"}, "HUVECs": {"tested_on": "HUVECs", "assay": "Tube formation (tubulogenesis) assay in HUVECs, 18 h", "type": "cell-based, human", "conditions": "Homo sapiens, HUVEC, 18 h, HUVEC; for activity at 0.1 µM: 0.10 µM", "summary_of_the_method": "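HUVECs (passage 1–5) seeded on reduced-growth-factor basement membrane and exposed to compounds overnight at 37°C, 5% CO2, in 2× maintenance medium with 12.5 ng/mL VEGF; 0.5% DMSO vehicle. Calcein AM-stained tube networks imaged and analysed; vehicle-normalized readouts fit to four-parameter logistic, POD set at one SD of vehicle means.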"}, "[2]": {"conditions": "iPSC-EC, 0.00 µM control = 100.00, read-out: endo.cyto.24hr"}, "[3]": {"conditions": "iPSC-EC, 0.00 µM control = 100.00, read-out: endo.mito.24hr"}, "[4]": {"conditions": "iPSC-EC, 0.00 µM control = 100.00, read-out: endo.mitoint.24hr"}, "[5]": {"conditions": "iPSC-EC, 0.00 µM control = 100.00, read-out: endo.nma.24hr"}, "[6]": {"conditions": "iPSC-EC, 0.00 µM control = 100.00, read-out: endo.tc.24hrs"}, "[7]": {"conditions": "HUVECs, 0.00 µM = 100.00, read-out: huvec.mtl.18hr"}, "[8]": {"conditions": "HUVECs, 0.00 µM = 100.00, read-out: huvec.tlps.18hr"}, "[9]": {"conditions": "HUVECs, 0.00 µM = 100.00, read-out: huvec.tta.18hr"}, "[10]": {"conditions": "HUVECs, 0.00 µM = 100.00, read-out: huvec.ttl.18hr"}}, "note": "Where two headings read alike, the source gives them in different places.", "data": [{"compound": "Oc1cccc(-c2ccc(Cl)cc2)c1", "note": "[3'-OH-PCB 3]", "values": [{"measurement": "minimal effective concentration", "setting": "[1]; endothelial cells (endo), cyto, read-out: POD endo.cyto.24hr", "value": 45.8, "unit": "µM"}, {"measurement": "minimal effective concentration", "setting": "[1]; endothelial cells (endo), mito, read-out: POD endo.mito.24hr", "value": 45.8, "unit": "µM"}, {"measurement": "minimal effective concentration", "setting": "[1]; endothelial cells (endo), mitoint, read-out: POD endo.mitoint.24hr", "value": 100, "unit": "µM"}, {"measurement": "minimal effective concentration", "setting": "[1]; endothelial cells (endo), nma, read-out: POD endo.nma.24hr", "value": 9.75, "unit": "µM"}, {"measurement": "minimal effective concentration", "setting": "[1]; endothelial cells (endo), tc, read-out: POD endo.tc.24hr", "value": 53.2, "unit": "µM"}, {"measurement": "minimal effective concentration", "setting": "HUVECs; tube formation mtl, read-out: POD huvec.mtl.18hr", "value": 1.14, "unit": "µM"}, {"measurement": "minimal effective concentration", "setting": "HUVECs; tube formation tlps, read-out: POD huvec.tlps.18hr", "value": 1.01, "unit": "µM"}, {"measurement": "minimal effective concentration", "setting": "HUVECs; tube formation tta, read-out: POD huvec.tta.18hr", "value": 3.65, "unit": "µM"}, {"measurement": "minimal effective concentration", "setting": "HUVECs; tube formation ttl, read-out: POD huvec.ttl.18hr", "value": 3.26, "unit": "µM"}]}, {"compound": "Oc1ccc(-c2cccc(Cl)c2)cc1Cl", "note": "[4-OH PCB11]", "values": [{"measurement": "viability at 0.01 µM", "setting": "[1]; [2]", "value": 99.5, "unit": "%"}, {"measurement": "activity at 0.01 µM", "setting": "[1]; [3]", "value": 99.5, "unit": "%"}, {"measurement": "activity at 0.01 µM", "setting": "[1]; [4]", "value": 103, "unit": "%"}, {"measurement": "activity at 0.01 µM", "setting": "[1]; [5]", "value": 103, "unit": "%"}, {"measurement": "viability at 0.01 µM", "setting": "[1]; [6]", "value": 99.5, "unit": "%"}, {"measurement": "viability at 0.1 µM", "setting": "[1]; [2]", "value": 102, "unit": "%"}, {"measurement": "activity at 0.1 µM", "setting": "[1]; [3]", "value": 102, "unit": "%"}, {"measurement": "activity at 0.1 µM", "setting": "[1]; [4]", "value": 94.9, "unit": "%"}, {"measurement": "activity at 0.1 µM", "setting": "[1]; [5]", "value": 99.2, "unit": "%"}, {"measurement": "viability at 0.1 µM", "setting": "[1]; [6]", "value": 102, "unit": "%"}, {"measurement": "viability at 1 µM", "setting": "[1]; [2]", "value": 97.1, "unit": "%"}, {"measurement": "activity at 1 µM", "setting": "[1]; [3]", "value": 96.8, "unit": "%"}, {"measurement": "activity at 1 µM", "setting": "[1]; [4]", "value": 97.1, "unit": "%"}, {"measurement": "activity at 1 µM", "setting": "[1]; [5]", "value": 102, "unit": "%"}, {"measurement": "viability at 1 µM", "setting": "[1]; [6]", "value": 97.1, "unit": "%"}, {"measurement": "viability at 10 µM", "setting": "[1]; [2]", "value": 106, "unit": "%"}, {"measurement": "activity at 10 µM", "setting": "[1]; [3]", "value": 106, "unit": "%"}, {"measurement": "activity at 10 µM", "setting": "[1]; [4]", "value": 92.4, "unit": "%"}, {"measurement": "activity at 10 µM", "setting": "[1]; [5]", "value": 97.2, "unit": "%"}, {"measurement": "viability at 10 µM", "setting": "[1]; [6]", "value": 106, "unit": "%"}, {"measurement": "viability at 100 µM", "setting": "[1]; [2]", "value": 57.3, "unit": "%"}, {"measurement": "activity at 100 µM", "setting": "[1]; [3]", "value": 52.7, "unit": "%"}, {"measurement": "activity at 100 µM", "setting": "[1]; [4]", "value": 68, "unit": "%"}, {"measurement": "activity at 100 µM", "setting": "[1]; [5]", "value": 88, "unit": "%"}, {"measurement": "viability at 100 µM", "setting": "[1]; [6]", "value": 78.1, "unit": "%"}, {"measurement": "minimal effective concentration", "setting": "[1]; iPSC-EC, top concentration 100.00 µM, read-out: endo.cyto.24hr POD", "value": 43.6, "unit": "µM"}, {"measurement": "minimal effective concentration", "setting": "[1]; iPSC-EC, top concentration 100.00 µM, read-out: endo.mito.24hr POD", "value": 43.6, "unit": "µM"}, {"measurement": "minimal effective concentration", "setting": "[1]; iPSC-EC, top concentration 100.00 µM, read-out: endo.mitoint.24hr POD", "value": 13, "unit": "µM"}, {"measurement": "minimal effective concentration", "setting": "[1]; iPSC-EC, top concentration 100.00 µM, read-out: endo.nma.24hr POD", "value": 9.66, "unit": "µM"}, {"measurement": "minimal effective concentration", "setting": "[1]; iPSC-EC, top concentration 100.00 µM, read-out: endo.tc.24hrs POD", "value": 62.1, "unit": "µM"}, {"measurement": "activity at 0.01 µM", "setting": "HUVECs; [7]", "value": 113, "unit": "%"}, {"measurement": "activity at 0.01 µM", "setting": "HUVECs; [8]", "value": 135, "unit": "%"}, {"measurement": "activity at 0.01 µM", "setting": "HUVECs; [9]", "value": 121, "unit": "%"}, {"measurement": "activity at 0.01 µM", "setting": "HUVECs; [10]", "value": 115, "unit": "%"}, {"measurement": "activity at 0.1 µM", "setting": "HUVECs; [7]", "value": 115, "unit": "%"}, {"measurement": "activity at 0.1 µM", "setting": "HUVECs; [8]", "value": 127, "unit": "%"}, {"measurement": "activity at 0.1 µM", "setting": "HUVECs; [9]", "value": 133, "unit": "%"}, {"measurement": "activity at 0.1 µM", "setting": "HUVECs; [10]", "value": 125, "unit": "%"}, {"measurement": "activity at 1 µM", "setting": "HUVECs; [7]", "value": 112, "unit": "%"}, {"measurement": "activity at 1 µM", "setting": "HUVECs; [8]", "value": 149, "unit": "%"}, {"measurement": "activity at 1 µM", "setting": "HUVECs; [9]", "value": 110, "unit": "%"}, {"measurement": "activity at 1 µM", "setting": "HUVECs; [10]", "value": 107, "unit": "%"}, {"measurement": "activity at 10 µM", "setting": "HUVECs; [7]", "value": 77.3, "unit": "%"}, {"measurement": "activity at 10 µM", "setting": "HUVECs; [8]", "value": 94.8, "unit": "%"}, {"measurement": "activity at 10 µM", "setting": "HUVECs; [9]", "value": 89.2, "unit": "%"}, {"measurement": "activity at 10 µM", "setting": "HUVECs; [10]", "value": 81.5, "unit": "%"}, {"measurement": "activity at 100 µM", "setting": "HUVECs; [7]", "value": 62.9, "unit": "%"}, {"measurement": "activity at 100 µM", "setting": "HUVECs; [8]", "value": 61.6, "unit": "%"}, {"measurement": "activity at 100 µM", "setting": "HUVECs; [9]", "value": 84.3, "unit": "%"}, {"measurement": "activity at 100 µM", "setting": "HUVECs; [10]", "value": 85.2, "unit": "%"}, {"measurement": "minimal effective concentration", "setting": "HUVECs; HUVECs, top concentration 100.00 µM, read-out: huvec.mtl.18hr POD", "value": 7.09, "unit": "µM"}, {"measurement": "minimal effective concentration", "setting": "HUVECs; HUVECs, top concentration 100.00 µM, read-out: huvec.tlps.18hr POD", "value": 35.3, "unit": "µM"}, {"measurement": "minimal effective concentration", "setting": "HUVECs; HUVECs, top concentration 100.00 µM, read-out: huvec.tta.18hr POD", "value": 100, "unit": "µM"}, {"measurement": "minimal effective concentration", "setting": "HUVECs; HUVECs, top concentration 100.00 µM, read-out: huvec.ttl.18hr POD", "value": 4.15, "unit": "µM"}]}]}
